Activity calls are given as the source filed them. No cut-off for these calls is given here.
Columns and labels:
MCF7 [1] = test: Cytotoxicity against human MCF7 cells after 72 hrs by MTT assay; assay type: functional, cell-based; conditions: MCF7, 72 h
[2] = Cytotoxicity against human H460 cells after 72 hrs by MTT assay; assay type: functional, cell-based; conditions: NCI-H460, 72 h
HEK293 [3] = test: Cytotoxicity against human HEK293 cells after 72 hrs by MTT assay; assay type: functional, cell-based; conditions: HEK293, 72 h
[4] = Cytotoxicity against human KB-3-1 cells after 72 hrs by MTT assay; assay type: functional, cell-based; conditions: KB 3-1, 72 h
[5] = Cytotoxicity against human H460 cells assessed as inhibition of cell survival at 0.5 uM after 72 hrs by MTT assay relative to control; assay type: functional; conditions: NCI-H460, 72 h
MCF7 [6] = test: Cytotoxicity against human MCF7 cells assessed as inhibition of cell survival at 0.5 uM after 72 hrs by MTT assay relative to control; assay type: functional; conditions: MCF7, 72 h
HEK293 [7] = test: Cytotoxicity against human HEK293 cells assessed as inhibition of cell survival at 0.5 uM after 72 hrs by MTT assay relative to control; assay type: functional; conditions: HEK293, 72 h
NCI-H460 = test: Cytotoxicity against human H460 cells assessed as inhibition of cell survival at 5 to 15 uM after 72 hrs by MTT assay relative to control; assay type: functional, cell-based
HEK293 [8] = test: Cytotoxicity against human HEK293 cells assessed as inhibition of cell survival at 5 to 15 uM after 72 hrs by MTT assay relative to control; assay type: functional, cell-based
MCF7 [9] = test: Cytotoxicity against human MCF7 cells assessed as inhibition of cell survival at 5 to 15 uM after 72 hrs by MTT assay relative to control; assay type: functional, cell-based
KB 3-1 = test: Cytotoxicity against human KB-3-1 cells assessed as inhibition of cell survival at 5 to 15 uM after 72 hrs by MTT assay relative to control; assay type: functional, cell-based

Q: For COc1cc(C(=O)c2cc(OC)c(OC)c(OC)c2)ccc1O [ISOPHENSTATIN], which IC50 (MCF7 [1]) is on record?
A: 199 nM

Q: And the IC50 [2]?
A: 188 nM

Q: What about the IC50 (HEK293 [3]) of the same compound?
A: 196 nM

Q: And the IC50 [4]?
A: 146 nM

Q: For CCCCCCCCCCCCCCCCCC(=O)Oc1ccc(C(=O)c2cc(OC)c(OC)c(OC)c2)cc1OC, which IC50 (MCF7 [1]) is on record?
A: 26900 nM

Q: And the IC50 [2]?
A: 17600 nM

Q: What about the IC50 (HEK293 [3]) of the same compound?
A: 15600 nM

Q: And the IC50 [4]?
A: 16900 nM

Q: With CCCCCCCC/C=C\CCCCCCCC(=O)Oc1cc(C(=O)c2cc(OC)c(OC)c(OC)c2)ccc1OC as the compound, how does the IC50 (MCF7 [1]) read?
A: 943 nM

Q: And the IC50 [2]?
A: 909 nM

Q: What about the IC50 (HEK293 [3]) of the same compound?
A: 950 nM

Q: And the IC50 [4]?
A: 786 nM

Q: With COc1ccc(C(=O)c2cc(OC)c(OC)c(OC)c2)cc1O [PHENSTATIN] as the compound, how does the IC50 (MCF7 [1]) read?
A: 19 nM

Q: What about the IC50 [2] of the same compound?
A: 20 nM

Q: What about the IC50 (HEK293 [3]) of the same compound?
A: 23 nM

Q: And the IC50 [4]?
A: 15 nM

Q: Which results are given for CCCCC/C=C\C/C=C\CCCCCCCC(=O)Oc1cc(C(=O)c2cc(OC)c(OC)c(OC)c2)ccc1OC?
A: IC50 (MCF7 [1]): 181 nM; IC50 [2]: 176 nM; inhibition at 0.5 µM [5]: 20%; inhibition at 0.5 µM (MCF7 [6]): 20%; inhibition at 0.5 µM (HEK293 [7]): 20%; IC50 (HEK293 [3]): 210 nM; IC50 [4]: 163 nM

Q: With CCCCCCCCCCCCCCCCCC(=O)Oc1cc(C(=O)c2cc(OC)c(OC)c(OC)c2)ccc1OC as the compound, how does the IC50 (MCF7 [1]) read?
A: 3350 nM

Q: And the IC50 [2]?
A: 4700 nM

Q: What about the IC50 (HEK293 [3]) of the same compound?
A: 2640 nM

Q: What about the IC50 [4] of the same compound?
A: 2780 nM

Q: With CCCCCCCC/C=C\CCCCCCCC(=O)Oc1ccc(C(=O)c2cc(OC)c(OC)c(OC)c2)cc1OC as the compound, how does the IC50 (MCF7 [1]) read?
A: 2170 nM

Q: And the IC50 [2]?
A: 2200 nM

Q: What about the IC50 (HEK293 [3]) of the same compound?
A: 2360 nM

Q: What about the IC50 [4] of the same compound?
A: 1720 nM

Q: With COc1cc2c(c(OC)c1OC)-c1ccc(OC)c(=O)cc1[C@@H](NC(C)=O)CC2 [COLCHICINE] as the compound, how does the IC50 (MCF7 [1]) read?
A: 19 nM

Q: What about the IC50 (HEK293 [3]) of the same compound?
A: 9 nM

Q: What about the IC50 [4] of the same compound?
A: 18 nM

Q: With CCCCC/C=C\C/C=C\CCCCCCCC(=O)Oc1ccc(C(=O)c2cc(OC)c(OC)c(OC)c2)cc1OC as the compound, how does the IC50 (MCF7 [1]) read?
A: 745 nM

Q: What about the inhibition (NCI-H460) of the same compound?
A: Active

Q: And the IC50 [2]?
A: 867 nM

Q: And the inhibition (HEK293 [8])?
A: Active

Q: And the inhibition (MCF7 [9])?
A: Active

Q: What about the IC50 (HEK293 [3]) of the same compound?
A: 903 nM

Q: And the inhibition (KB 3-1)?
A: Active

Q: And the IC50 [4]?
A: 547 nM
